Experimental data published in PubChem BioAssay AID248 (DTP/NCI, 2004).
Where “and” joins values, the source holds several entries; their conditions need not be identical. Equal values may be shown once. Inconclusive results and toxic doses are left out.

Tested on: L1210 leukemia ip in BDF1 mice, survival T/C
Test: NCI In Vivo Anticancer Drug Screen. Data for tumor model L1210 Leukemia (intraperitoneal) in B6D2F1 (BDF1) mice
Conditions: endpoint: mean survival time, higher = longer survival
Summary of the method: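 Transplanted-tumor mice were given test agent; controls received vehicle only. Survival readings from the two groups were divided (treated over control).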

[1] = dose: 25.0 mg/kg/injection, schedule: Q04DX003 (ip), vehicle: saline
[2] = dose: 50.0 mg/kg/injection, schedule: Q04DX003 (ip), vehicle: saline
[3] = dose: 100.0 mg/kg/injection, schedule: Q04DX003 (ip), vehicle: saline
[4] = dose: 100.0 mg/kg/injection, schedule: Q01DX001 (ip), vehicle: carboxymethylcellulose (CMC)
[5] = dose: 200.0 mg/kg/injection, schedule: Q01DX001 (ip), vehicle: carboxymethylcellulose (CMC)
[6] = dose: 400.0 mg/kg/injection, schedule: Q01DX001 (ip), vehicle: carboxymethylcellulose (CMC)
[7] = dose: 100.0 mg/kg/injection, schedule: Q01DX009 (ip), vehicle: saline with Tween-80
[8] = dose: 200.0 mg/kg/injection, schedule: Q01DX009 (ip), vehicle: saline with Tween-80
[9] = dose: 400.0 mg/kg/injection, schedule: Q01DX009 (ip), vehicle: saline with Tween-80
[10] = dose: 100.0 mg/kg/injection, schedule: Q01DX001 (ip), vehicle: Klucel (hydroxypropylcellulose) (HPC)
[11] = dose: 200.0 mg/kg/injection, schedule: Q01DX001 (ip), vehicle: Klucel (hydroxypropylcellulose) (HPC)
[12] = dose: 100.0 mg/kg/injection, schedule: Q04DX003 (ip), vehicle: Klucel (hydroxypropylcellulose) (HPC)
[13] = dose: 200.0 mg/kg/injection, schedule: Q04DX003 (ip), vehicle: Klucel (hydroxypropylcellulose) (HPC)
[14] = dose: 400.0 mg/kg/injection, schedule: Q04DX003 (ip), vehicle: Klucel (hydroxypropylcellulose) (HPC)

In the case of `N=C(N)SCc1ccc(CSC(=N)N)cc1`, the T/C (dose: 12.5 mg/kg/injection, schedule: Q04DX002 (ip), vehicle: saline with Tween-80) is reported as 102 % of control, the T/C (dose: 25.0 mg/kg/injection, schedule: Q01DX009 (ip), vehicle: saline) is reported as 91 % of control and the T/C (dose: 25.0 mg/kg/injection, schedule: Q04DX002 (ip), vehicle: saline with Tween-80) is reported as 94 % of control. The T/C [1] was 103 % of control, the T/C (dose: 50.0 mg/kg/injection, schedule: Q01DX009 (ip), vehicle: saline) was 97 % of control and the T/C [2] was 102 % of control. For the same compound, the T/C [3] was 105 % of control.

For `CCN(CC)CCNC(Cc1ccccc1)c1ccc(OCc2ccccc2)cc1` (configuration not stated), the T/C [4] was 100 % of control, the T/C [5] was 96 % of control and the T/C [6] was 96 % of control.

With `CN(C(N)=O)c1c(O)nc(N)[nH]c1=O` the T/C (dose: 25.0 mg/kg/injection, schedule: Q01DX009 (ip), vehicle: water) was 98 % of control, the T/C (dose: 50.0 mg/kg/injection, schedule: Q01DX009 (ip), vehicle: water) was 98 % of control and the T/C (dose: 50.0 mg/kg/injection, schedule: Q04DX003 (ip), vehicle: water) was 108 % of control. The T/C (dose: 100.0 mg/kg/injection, schedule: Q01DX009 (ip), vehicle: water) was 102 % of control, the T/C (dose: 100.0 mg/kg/injection, schedule: Q04DX003 (ip), vehicle: water) was 97 % of control and the T/C (dose: 150.0 mg/kg/injection, schedule: Q01DX009 (ip), vehicle: water) was 105 % of control. The T/C (dose: 200.0 mg/kg/injection, schedule: Q04DX003 (ip), vehicle: water) was 90 % of control.

In the case of `c1cc(OC2CCCCO2)ccc1OC1CCCCO1` (configuration not stated), the T/C [7] is reported as 98 % of control, the T/C (dose: 100.0 mg/kg/injection, schedule: Q04DX003 (ip), vehicle: saline with Tween-80) is reported as 95 % of control and the T/C [8] is reported as 97 % of control. For the same compound, the T/C (dose: 200.0 mg/kg/injection, schedule: Q04DX003 (ip), vehicle: saline with Tween-80) was 93 % of control, the T/C [9] was 97 % of control and the T/C (dose: 400.0 mg/kg/injection, schedule: Q04DX003 (ip), vehicle: saline with Tween-80) was 95 % of control.

In the case of `COc1ccccc1-n1c(O)c(N=Nc2ccc(Cl)cc2)c(=O)n(-c2ccccc2OC)c1=S`, the T/C [10] is reported as 104 % of control and the T/C [11] is reported as 110 % of control.

For `CC(COS(C)(=O)=O)(COS(C)(=O)=O)Cc1ccccc1`, the T/C (dose: 100.0 mg/kg/injection, schedule: Q01DX009 (ip), vehicle: Klucel (hydroxypropylcellulose) (HPC)) was 103 % of control, the T/C (dose: 200.0 mg/kg/injection, schedule: Q01DX009 (ip), vehicle: Klucel (hydroxypropylcellulose) (HPC)) was 95 % of control and the T/C (dose: 400.0 mg/kg/injection, schedule: Q01DX009 (ip), vehicle: Klucel (hydroxypropylcellulose) (HPC)) was 93 % of control.

With `Nc1nc(N)c2c(n1)SCC(/C=N/O)=N2` the T/C [10] was 108 % of control, the T/C [11] was 95 % of control and the T/C (dose: 400.0 mg/kg/injection, schedule: Q01DX001 (ip), vehicle: Klucel (hydroxypropylcellulose) (HPC)) was 97 % of control.

With `C/C=C\COC(=O)COc1ccc(Cl)cc1` the T/C [12] was 94 % of control, the T/C [13] was 96 % of control and the T/C [14] was 107 % of control.

With `OC1(c2ccccc2)CC2CC1c1ccccc12` (configuration not stated) the T/C [4] was 111 % of control, the T/C [5] was 93 % of control and the T/C [6] was 90 % of control.

`C1CCN(CCC2CCNCC2)CC1` was tested, and the T/C [1] was 97 % of control, the T/C [2] was 97 % of control and the T/C [3] was 99 % of control and 100 % of control.

For `O=NN(CCCl)C(=O)Nc1ccc(Cn2cnc3c(=O)[nH]cnc32)cc1`, the T/C (dose: 5.0 mg/kg/injection, schedule: Q01DX009 (ip), vehicle: other) was 150 % of control, the T/C (dose: 7.0 mg/kg/injection, schedule: Q01DX009 (ip), vehicle: other) was 155 % of control and the T/C (dose: 14.0 mg/kg/injection, schedule: Q01DX009 (ip), vehicle: other) was 162 % of control. The T/C (dose: 18.0 mg/kg/injection, schedule: Q01DX001 (ip), vehicle: other) was 161 % of control, the T/C (dose: 28.0 mg/kg/injection, schedule: Q01DX009 (ip), vehicle: other) was 88 % of control and the T/C (dose: 31.0 mg/kg/injection, schedule: Q01DX001 (ip), vehicle: other) was 155 % of control. For the same compound, the T/C (dose: 36.0 mg/kg/injection, schedule: Q01DX001 (ip), vehicle: other) was 185 % of control, the T/C (dose: 45.0 mg/kg/injection, schedule: Q01DX001 (ip), vehicle: other) was 196 % of control and the T/C (dose: 46.0 mg/kg/injection, schedule: Q01DX001 (ip), vehicle: other) was 169 % of control. For the same compound, the T/C (dose: 62.0 mg/kg/injection, schedule: Q01DX001 (ip), vehicle: other) was 169 % of control, the T/C (dose: 63.0 mg/kg/injection, schedule: Q01DX001 (ip), vehicle: other) was 164 % of control and the T/C (dose: 125.0 mg/kg/injection, schedule: Q01DX001 (ip), vehicle: other) was 101 % of control.

With `O=C(NCCCl)NCC1CCCO1` (configuration not stated) the T/C (dose: 50.0 mg/kg/injection, schedule: Q04DX003 (ip), vehicle: Klucel (hydroxypropylcellulose) (HPC)) was 103 % of control, the T/C [12] was 103 % of control and the T/C [13] was 103 % of control. For the same compound, the T/C [14] was 90 % of control.

With `CC(=O)c1ccccc1OS(=O)(=O)c1ccc([N+](=O)[O-])cc1` the T/C [7] was 105 % of control, the T/C [12] was 105 % of control and the T/C [8] was 111 % of control. For the same compound, the T/C [13] was 100 % of control, the T/C [9] was 114 % of control and the T/C [14] was 103 % of control.
